Experimental data reported in paper PMC6272295, “In Vitro Neuroprotective Activities of Compounds from Angelica shikokiana Makino” (Molecules, 2015).

Assays:
Aβ25-35 = target: T1, Aβ25-35 (Homo sapiens, UniProt P05067); assay: Thioflavin T assay of Aβ25-35 aggregation; assay type: biochemical; conditions: for effect on Th-T fluorescence (in words): 25-100 µM; for Decrease of ThT Fluorescence: summary Table 4; on Decrease of ThT Fluorescence: key: +: Weak activity; ++: Strong activity
T1 construct: Aβ25-35 (25 µM) freshly prepared in PBS; purchased Sigma (St. Louis, MO, USA)
Protocol: Thioflavin T (ThT), abenzothiazole salt, is used to quantify misfolded protein aggregates and amyloid peptides. ThT is a non-fluorescent dye which, when it binds to amyloid rich aggregates, produces a fluorescent signal proportional to the quantity of amyloid aggregation. Aβ25-35 (25 µM) freshly prepared in PBS (50 mM, pH = 7.4) was incubated at 37 °C with or without different concentrations (100, 50, 25 µM) of isolated compounds at 37 °C and shaken at 300 rpm for 3 h. One hundred µL of each incubated sample was transferred to a 96-well plate, and five µM ThT was added. The ThT fluorescence was measured over 180 min at 10-min intervals at emission λ at 485 nm; and excitation λ at 442 nm using FlexStation 3 Microplate Reader (Molecular Devices, LLC, Sunnyvale, CA, USA), and data were managed by SoftMax Pro® 5.4.1 software. The samples were constantly shaken every 60 sec during the incubation. 1% DMSO and different concentrations of ECCG were taken as negative and positive controls, respectively. The area under the curve (AUC) was taken as indicative of fluorescence intensity. Fluorescence of samples and ThT without Aβ25-35 (sample blank) was detected and subtracted from the final AUC to prevent any interference.

neuro-2A cells = assay: Protection against H2O2-induced neurotoxicity (MTT); assay type: cell-based, Mouse; conditions: for neuroprotection against H2O2-induced neurotoxicity (in words): 6.25-100 µM, H2O2 150 µM; for Protection against H2O2: summary Table 4
Protocol: Neuro-2A cell line was maintained in Eagle’s Minimum Essential medium supplemented with 10% fetal bovine serum, 1% of 100× antibiotic—antimitotic agents (containing penicillin and streptomycin) in a humid atmosphere of 5% (v/v) CO2 and 95% (v/v) air at 37 °C. Neuro-2A cells were plated in 96-well cell culture plates at a density of 3 × 10^4 cells/well for H2O2 and intracellular ROS assays and 2.5 × 10^3 cells/well for the Aβ25-35-assay.
Cell viability was determined by MTT reduction assay. Briefly, after treatment with isolated compounds, the media was replaced by fresh one after washing the cells with 100 µL PBS and 20 µL of MTT (5 mg/mL) was added to each well. After 4 h incubation at 37 °C, the state of cells was checked under microscope to confirm either cytotoxicity in H2O2 and Aβ25-35 wells or protection in positive controls and isolated compounds ones. The supernatants were aspirated carefully, and 150 µL of DMSO was added to each well to dissolve the dark blue formazan crystals. The absorbance was measured using a microplate reader at 570 nm.
H2O2 interacts with metals in the medium, producing highly cytotoxic hydroxyl radicals that induce neurotoxicity. So, active compounds are those that can scavenge free radicals and increase the cell viability. This assay was performed as previously described with slight modifications. Briefly, the concentration of H2O2 that decreased cell viability to about 50% was determined as follows: cells were cultured in a 96-well plate and after 24 h were further incubated with different concentrations of H2O2 (50, 100, 150, 200 µM) freshly prepared from 30% stock solution. After 24 h, cell viability was determined using the MTT reduction method. H2O2 at a concentration of 150 µM had the desired cytotoxicity and was used for the next step.

SMILES: O=c1c(O)c(-c2ccc(O)cc2)oc2cc(O)cc(O)c12 [Kaempferol (8), kaempferol]
- effect on Th-T fluorescence (in words) (Aβ25-35): weak activity
- Decrease of ThT Fluorescence (Aβ25-35): +
- neuroprotection against H2O2-induced neurotoxicity (in words) (neuro-2A cells): significant (p < 0.05) increase in cell viability at 100 µM
- Protection against H2O2 (neuro-2A cells): +

SMILES: CC(=O)OC1c2c(ccc3ccc(=O)oc23)OC(C)(C)C1OC(=O)C(C)(O)C(C)O (stereo not drawn) [Hyuganin E (6), hyuganin E]
- effect on Th-T fluorescence (in words) (Aβ25-35): decreased Th-T fluorescence in a dose-dependent manner
- Decrease of ThT Fluorescence (Aβ25-35): ++
- neuroprotection against H2O2-induced neurotoxicity (in words) (neuro-2A cells): significant (p < 0.05) increase in cell viability at 100 µM
- Protection against H2O2 (neuro-2A cells): +

SMILES: O=c1c(OC2OC(CO)C(O)C(O)C2O)c(-c2ccc(O)cc2)oc2cc(O)cc(O)c12 (stereo not drawn) [Kaempferol-3-O-glucoside (13), kaempferol-3-O-glucoside]
- effect on Th-T fluorescence (in words) (Aβ25-35): weak activity
- Decrease of ThT Fluorescence (Aβ25-35): +
- neuroprotection against H2O2-induced neurotoxicity (in words) (neuro-2A cells): significant (p < 0.05) increase in cell viability at 100 µM
- Protection against H2O2 (neuro-2A cells): +
